Laboratory results as given in patent US20260234140A1, “PYRIDOPYRIMIDINE DERIVATIVE AND USE THEREOF” (SUNSHINE LAKE PHARMA CO., LTD., priority 2023, published 2026).

Test system: PD1/PD-L1 pathway
Experiment: PD1/PD-L1 Blockade Bioassay, inhibition of the PD1/PD-L1 pathway at the cellular level (luciferase reporter, PD-1 Jukat T cells co-cultured with PD-L1 aAPC/CHO-K1 cells)
Assay type: cell-based
Details: T-cell; for EC50: PD-1 Jukat T cells + PD-L1 aAPC/CHO-K1 cells, 6 h co-culture, ONE-Glo luciferase readout; for Emax: maximum % Activity relative to atezolizumab (set to 100%)
Description: Experiment 1: Detecting the Inhibitory Activity of Compounds on the PD1/PD-L1 Pathway at the Cellular Level Using the PD1/PD-L1 Blockade Bioassay Method
PD-1 Jukat T cells were revived and cultured with 1640 medium containing 100 μg/mL Hygromycin B, […] Puromycin, 10% FBS and 1% dual antibody; PD-L1 aAPC/CHO-K1 cells were revived and cultured with F12K medium containing 100 μg/mL Hygromycin B, 200 μg/mL G418, 10% FBS and 1% dual antibody.
The revived cells need to be passaged 2-3 times. When the cells enter the exponential growth phase with good growth status, the PD-L1 aAPC/CHO-K1 was digested with trypsin, and the cells were resuspended in F12K containing 5% FBS and adjusted to a density of 5×10^5 cells/mL. 20 μl/well were plated in a 384-well plate (10,000 cells/well) and incubated in an incubator overnight for 16-20 h.
a Preparation of compound stock solution: Dissolve the compound to be tested in DMSO to prepare a 20 mM stock solution.
b Compound gradient dilution: dilute the compound in 1640 medium containing 5% FBS without antibiotics or phenol red, and make 3-fold gradient dilutions to prepare 10 concentration gradients (2×).
c Adding drugs: Take out the cell culture plate, discard the supernatant, add 20 μl/well of the prepared compound, and incubate in the incubator for 1.5 h.
PD-1 Jukat T cells were collected, washed once with PBS, and resuspended in 1640 medium containing 5% FBS without antibiotics or phenol red. The density was adjusted to 1×10^6 cells/mL. 20 μl PD-1 Jukat T cells (20,000 cells/well) were added to each well and incubated in the incubator for 6 h.
ONE-Glo™ Luciferase Assay reagent was thawed to room temperature in advance and then added to a 384-well plate at 40 µl/well. Incubate in the dark for 15 minutes and read the […] signal on a plate reader.
[formula] • Among them, % Activity: % Activity • RLU: Resulting Luminescence unit • RLUvehicle: Average RLU value of negative control wells on each plate • RLUpositive: Average RLU value of positive control wells on each plate • Vehicle control: DMSO (0.1%) corresponding to the test value was used as negative control (its % Activity was 0%); • Positive control: The highest detection value at the atezolizumab administration concentration was used as the positive control (its % Activity was 100%). • (2) EC50 value calculation method: The EC50 value was obtained by the nonlinear fitting formula of Graph Pad Prism 8.0 software. The calculation formula is as follows:
Y=Bottom+(Top−Bottom)/(1+10^((Log EC50−X)×HillSlope)) • X: log of activator concentration (logarithm of compound concentration); Y: % Activity • (3) Emax definition: The maximum % Activity value corresponding to the maximum activation value of the compound relative to atezolizumab (the activation value is set to 100%).

Row | SMILES | EC50 | Emax
1 | COc1nc(-c2cccc(-c3cccc(Nc4nc(C(F)F)nc5cc(CN6CC[C@H]([C@H](C)O)C6)cnc45)c3C)c2Cl)cnc1CN(C)[C@H]1CC[C@H](C(=O)O)CC1 [Example 45, (1r,4r)-4-(((5-(2-chloro-3′-((2-(difluoromethyl)-7-(((S)-3-((S)-1-hydroxyethyl)pyrrolidin-1-yl)methyl)pyrido[3,2-d]pyrimidin-4-yl)amino)-2′-methyl-[1,1′-biphenyl]-3-yl)-3-methoxypyrazin-2-yl)methyl)(methyl)amino)cyclohexane-1-carboxylic acid] | 94.7 nM | 87.3%
2 | COc1nc(-c2cccc(-c3cccc(Nc4nc(C(F)F)nc5cc(CN6CC[C@H]([C@@H](C)O)C6)cnc45)c3C)c2Cl)cnc1CN(C)[C@H]1CC[C@H](C(=O)O)CC1 [Example 44, (1r,4r)-4-(((5-(2-chloro-3′-((2-(difluoromethyl)-7-(((S)-3-((R)-1-hydroxyethyl)pyrrolidin-1-yl)methyl)pyrido[3,2-d]pyrimidin-4-yl)amino)-2′-methyl-[1,1′-biphenyl]-3-yl)-3-methoxypyrazin-2-yl)methyl)(methyl)amino)cyclohexane-1-carboxylic acid] | 84.5 nM | 69%
3 | COc1nc(-c2cccc(-c3cccc(Nc4nc(C(F)F)nc5cc(CN6CC[C@@H](O)C6)cnc45)c3C)c2Cl)ccc1CN[C@H]1CC[C@H](C(=O)O)CC1 [Example 2, (1r,4r)-4-(((6-(2-chloro-3′-((2-(difluoromethyl)-7-(((R)-3-hydroxypyrrolidin-1-yl)methyl)pyrido[3,2-d]pyrimidin-4-yl)amino)-2′-methyl-[1,1′-biphenyl]-3-yl)-2-methoxypyridin-3-yl)methyl)amino)cyclohexane-1-carboxylic acid] | 98.3 nM | 118%
4 | COc1nc(-c2cccc(-c3cccc(Nc4nc(C(F)F)nc5cc(CN6CC[C@@H](OC(F)F)C6)cnc45)c3C)c2Cl)cnc1CN(C)[C@H]1CC[C@H](C(=O)O)CC1 [Example 42, (1r,4r)-4-(((5-(2-chloro-3′-((7-(((R)-3-(difluoromethoxy)pyrrolidin-1-yl)methyl)-2-(difluoromethyl)pyrido[3,2-d]pyrimidin-4-yl)amino)-2′-methyl-[1,1′-biphenyl]-3-yl)-3-methoxypyrazin-2-yl)methyl)(methyl)amino)cyclohexane-1-carboxylic acid] | 90.9 nM | 74%
5 | COc1nc(-c2cccc(-c3cccc(Nc4nc(C(F)F)nc5cc(CN6CCC(O)CC6)cnc45)c3C)c2Cl)cnc1CN(C)[C@H]1CC[C@H](C(=O)O)CC1 [Example 21, (1r,4r)-4-(((5-(2-chloro-3′-((2-(difluoromethyl)-7-((4-hydroxypiperidin-1-yl)methyl)pyrido[3,2-d]pyrimidin-4-yl)amino)-2′-methyl-[1,1′-biphenyl]-3-yl)-3-methoxypyrazin-2-yl)methyl)(methyl)amino)cyclohexane-1-carboxylic acid] | 105 nM | 65%

Compounds with a lower EC50, results first:

Row | EC50 | SMILES | Emax
6 | 75.8 nM | COc1nc(-c2cccc(-c3cccc(Nc4nc(C(F)F)nc5cc(CN6CC[C@@H](O)C6)cnc45)c3C)c2Cl)cnc1CN(C)[C@H]1CC[C@H](C(=O)O)C1 [Example 52, (1S,3S)-3-(((5-(2-chloro-3′-((2-(difluoromethyl)-7-(((R)-3-hydroxypyrrolidin-1-yl)methyl)pyrido[3,2-d]pyrimidin-4-yl)amino)-2′-methyl-[1,1′-biphenyl]-3-yl)-3-methoxypyrazin-2-yl)methyl)(methyl)amino)cyclopentane-1-carboxylic acid] | 74.3%
7 | 70.7 nM | COc1nc(-c2cccc(-c3cccc(Nc4nc(C(F)F)nc5cc(CN6CC[C@@H](O)C6)cnc45)c3C)c2Cl)ccc1CN(C)CC12CCC(C(=O)O)(CC1)C2 [Example 10, (R)-4-((((6-(2-chloro-3′-((2-(difluoromethyl)-7-((3-hydroxypyrrolidin-1-yl)methyl)pyrido[3,2-d]pyrimidin-4-yl)amino)-2′-methyl-[1,1′-biphenyl]-3-yl)-2-methoxypyridin-3-yl)methyl)(methyl)amino)methyl)bicyclo[2.2.1]heptane-1-carboxylic acid] | 79.3%
8 | 46.1 nM | COc1nc(-c2cccc(-c3cccc(Nc4nc(C(F)F)nc5cc(CN6CC[C@@H](O)C6)cnc45)c3Cl)c2Cl)cnc1CN(C)[C@H]1CC[C@H](C(=O)O)CC1 [Example 35, (1r,4r)-4-(((5-(2,2′-dichloro-3′-((2-(difluoromethyl)-7-(((R)-3-hydroxypyrrolidin-1-yl)methyl)pyrido[3,2-d]pyrimidin-4-yl)amino)-[1,1′-biphenyl]-3-yl)-3-methoxypyrazin-2-yl)methyl)(methyl)amino)cyclohexane-1-carboxylic acid] | 102%
9 | 44.4 nM | COc1nc(-c2cccc(-c3cccc(Nc4nc(C(F)F)nc5cc(CN6CC[C@@H](CO)C6)cnc45)c3C)c2Cl)cnc1CN(C)[C@H]1CC[C@H](C(=O)O)CC1 [Example 23, (1r,4r)-4-(((5-(2-chloro-3′-((2-(difluoromethyl)-7-(((R)-3-(hydroxymethyl)pyrrolidin-1-yl)methyl)pyrido[3,2-d]pyrimidin-4-yl)amino)-2′-methyl-[1,1′-biphenyl]-3-yl)-3-methoxypyrazin-2-yl)methyl)(methyl)amino)cyclohexane-1-carboxylic acid] | 74%
10 | 42.9 nM | COc1nc(-c2cccc(-c3cccc(Nc4nc(C(F)F)nc5cc(CN6CC[C@@](C)(O)C6)cnc45)c3C)c2Cl)cnc1CN(C)[C@H]1CC[C@H](C(=O)O)CC1 [Example 29, (1r,4r)-4-(((5-(2-chloro-3′-((2-(difluoromethyl)-7-(((R)-3-hydroxy-3-methylpyrrolidin-1-yl)methyl)pyrido[3,2-d]pyrimidin-4-yl)amino)-2′-methyl-[1,1′-biphenyl]-3-yl)-3-methoxypyrazin-2-yl)methyl)(methyl)amino)cyclohexane-1-carboxylic acid] | 89%
11 | 31.3 nM | COc1nc(-c2cccc(-c3cccc(Nc4nc(C(F)F)nc5cc(CN6CC[C@@H](O)C6)cnc45)c3C)c2Cl)cnc1CN(C)C[C@H]1CC[C@H](C(=O)O)CC1 [Example 14, (1r,4r)-4-((((5-(2-chloro-3′-((2-(difluoromethyl)-7-(((R)-3-hydroxypyrrolidin-1-yl)methyl)pyrido[3,2-d]pyrimidin-4-yl)amino)-2′-methyl-[1,1′-biphenyl]-3-yl)-3-methoxypyrazin-2-yl)methyl)(methyl)amino)methyl)cyclohexane-1-carboxylic acid] | 103%
12 | 28.1 nM | COc1nc(-c2cccc(-c3cccc(Nc4nc(C(F)F)nc5cc(CN6CC[C@@H](O)C6)cnc45)c3Cl)c2Cl)ccc1CN(C)[C@H]1CC[C@H](C(=O)O)CC1 [Example 16, (1r,4r)-4-(((6-(2,2′-dichloro-3′-((2-(difluoromethyl)-7-(((R)-3-hydroxypyrrolidin-1-yl)methyl)pyrido[3,2-d]pyrimidin-4-yl)amino)-[1,1′-biphenyl]-3-yl)-2-methoxypyridin-3-yl)methyl)(methyl)amino)cyclohexane-1-carboxylic acid] | 107%
